Measured values from patent publication US20070225252A1, “Ketogenic Saccharides” (priority 2004, published 2007).

Test: Ketogenesis in rats in vivo (plasma (R)-3-hydroxybutyrate after oral gavage)
Parameters: species or system Male Sprague-Dawley rats
Settings: rat, ANOVA/Dunnett P<0.05
Protocol: Male Sprague-Dawley rats (weight range 200-250 g Charles River, Margate, Kent) were group housed in polypropylene cages at a temperature of 21±4° C. and 55±20% humidity and on a standard light/dark cycle. Animals had free access to a standard pelleted rat diet and tap water at all times. Animals were accustomed to these conditions for at least one week before experimentation.
Compounds were administered by oral gavage (po). Control animals received the appropriate vehicle via the same route. The experiment was performed over 2 days (ie 2 compounds were tested per day). Blood samples were taken by cardiac puncture after the animals were killed by a British Home Office Schedule 1 method. The terminal blood sample was collected into suitable plasma preparation tubes (EDTA-coated tubes). Plasma samples were initially frozen on dry ice and transferred to a −75° C. freezer until required for subsequent analysis (spectrophotometric analysis of (R)-3-hydroxybutyrate).
Sodium DL-β-hydroxybutyrate (H-6501 Lot 111K2618) was obtained from Sigma A stock solution of β-hydroxybutyrate (40 mM DL racemate equivalent to 20 mM D-isomer) was prepared in 0.9% saline solution, kept at 4° C. and used to generate appropriate dilutions for an assay standard curve.
Commercial clinical assay kits for the determination of D-β-hydroxybutyrate were obtained from Randox Laboratories (Antrim, UK). Kits were obtained in two pack sizes (Ranbut RB1007: 10×10 ml and RB1008: 10×50 ml) but were otherwise identical. […] The kit relies on measuring the appearance of NADH via the activity of β-hydroxybutyrate dehydrogenase measured as an increase of OD340 nm. […]
The protocol supplied with the Ranbut kits was for a discrete (cuvette-based) spectrophotometzic assay, so the protocol was modified for suitability with a 96-well microplate format using blank, flat-bottomed microplates (Greiner PS 655101 Lot 98 35 01). […] Standard dilutions and samples were pipetted a single plate at a time and preincubated at 37° C. for 15 minutes in the sample compartment of a Molecular Devices VERSAmax tunable microplate reader: The appropriate volume of assay reagent was reconstituted, according to instructions, using distilled water and preincubated at 37° C. for 15 minutes using a static water bath. […] The plate was reloaded, mixed and then the change in OD340 nm followed in kinetic mode with a reading at every 15 seconds for a total of 2 minutes. The reaction rate was then determined from the OD increase over a suitable 1 minute period, after allowing a necessary period for the reaction rate to settle. The rate between 45 seconds and 105 seconds was used as the default measuring period, though occasionally a different period was used as necessary (eg if an aberrant reading was obtained at one of these time-points). […]

sorbitol 3-hydroxybutyrate tri-ester [KTX 0313]
increases in plasma 3-hydroxybutyrate concentrations (ketogenesis) (300 mg/kg po, blood sampling 30, 120, 240 min vs vehicle baseline): significant increases

arabinose (R)-3-hydroxybutyrate ester [KTX 0312]
increases in plasma 3-hydroxybutyrate concentrations (ketogenesis) (351 mg/kg po, blood sampling 30, 120, 240 min vs vehicle): did not evoke significant ketogenesis

fructose (R)-3-hydroxybutyrate ester [KTX 0311]
increases in plasma 3-hydroxybutyrate concentrations (ketogenesis) (441 mg/kg po, blood sampling 30, 120, 240 min vs vehicle baseline): significant increases

glucose (R)-3-hydroxybutyrate ester [KTX 0310]
increases in plasma 3-hydroxybutyrate concentrations (ketogenesis) (440 mg/kg po, blood sampling 30, 120, 240 min vs vehicle): did not evoke significant ketogenesis
